Publication PMC11286609, “In vitro and in vivo analyses of eFAP: a novel FAP-targeting small molecule for radionuclide theranostics and other oncological interventions” (EJNMMI Radiopharmacy and Chemistry, 2024)

Key:
[1] = Stability in human serum at 37 °C (radio-HPLC / LC-MS); type: in vitro ADME
Description: (§1) For the stability assessment of eFAP-6, [^111In]In-eFAP-6 or [^177Lu]Lu-eFAP-6 (~ 3–7 MBq, 20 µL) was mixed with 180 µL of PBS (0.01 M, pH 7.4) and incubated at 37 °C for up to 24 h. A sample of the PBS solution was directly injected on the radio-HPLC at 1, 4, and 24 h after incubation. Additionally, [^111In]In-eFAP-6 and [^177Lu]Lu-eFAP-6 (5–15 MBq, 50 µL) were incubated with 350 µL of commercially acquired mouse or human serum (Biolegend; San Diego, CA, USA) at 37 °C for up to 24 h. Following 1, 4, and 24 h of incubation, 50 µL of the solution were mixed with 50 µL of acetonitrile in an Eppendorf tube, and centrifuged at 5000× g for 20 min. The supernatant was then analyzed by radio-HPLC. Stability studies of eFAP-7 were performed by incubation of eFAP-7 (50 µL, 10^− 4 M) in 450 µL PBS or serum at 37 °C for up to 24 h. After 1, 4, and 24 h of incubation, 50 µL of the PBS incubation solution were directly analyzed by liquid chromatography-mass spectrometry (LC-MS), while 50 µL of the serum solution was mixed with 50 µL of acetonitrile in an Eppendorf tube, and centrifuged at 5000× g for 20 min, followed by LC-MS analyses.

HT1080-huFAP cells = test: Radiotracer uptake assay in FAP-expressing cells; type: cell-based, human
Description: Cell experiments were performed with the human sarcoma HT1080 cell line, stably transduced with human FAP (HT1080-huFAP) which were kindly provided by Prof. Dr. Uwe Haberkorn from the University of Heidelberg. The wild type HT1080 (ATTC), hereafter HT080-WT, was used as a negative control. Additionally, the pancreatic stellate cells PS-1, obtained from Queen Mary University, were used as an endogenously FAP expressing cell line. HT1080-huFAP and HT1080-WT cells were cultured in DMEM Glutamax© (Gibco; Breda, The Netherlands) and the PS-1 cells were cultured in RPMI (Gibco). Both media were supplemented with 10% FBS (Gibco), 100 UI/mL penicillin, and 100 µg/mL streptomycin (Merck Life Science NV; Amsterdam, The Netherlands). All cell lines were regularly passaged at 80% confluence and cultured at 37 °C, 5% CO2.
In vitro displacement studies of eFAP-6 and eFAP-7, as well as specificity and uptake assays, were performed using HT0180-huFAP cells. One day prior to the assay 100,000 cells were seeded in a 12-well plate in triplicate. […] For the uptake assay, the cells were incubated with 1 nM [^111In]In-eFAP-6 or [^111In]In-FAPI-46 for different time points (5–120 min) in the presence and absence of 1 mM UAMC-1110 to determine the specificity of^111 radiotracer binding. In both assays, the cells were washed twice with PBS after incubation and were subsequently lysed using 1 M NaOH for 20 min. The cell lysates were collected and radioactivity was measured in a γ-counter (PerkinElmer), simultaneously with 100 µL of the radioactive incubation medium as a standard. Cells in separate wells were collected with Trypsin-EDTA (Gibco) for counting by the automated Countess II cell counter (Thermo Fisher Scientific; Bleiswijk, The Netherlands). Uptake was expressed as percentage added activity per 200,000 cells (% AA/200,000 cells), and specific uptake was corrected by subtracting the uptake measured in the block wells.

[2] = LogD7.4 shake-flask method (n-octanol/PBS); type: physicochemical; conditions: n-octanol/PBS pH 7.4, shake-flask
Description: The distribution coefficients (LogD7.4) were determined using a shake-flask method, in which 2 µL (~ 0.5 MBq) of [^111In]In-eFAP-6 or 10 µL of eFAP-7 (10^− 4 M) was added to an Eppendorf tube containing 1 mL of PBS (0.01 M, pH 7.4) and n-octanol (v/v, 1:1). After vigorous vortexing, the solution was centrifuged at 2500× g for 15 min for phase separation. For radiolabeled eFAP-6, samples (3 × 10 µL) of the octanol and aqueous phases were taken out and measured in a 1480 Wizard automatic γ-counter (PerkinElmer; Groningen, The Netherlands). LogD7.4 values were calculated by using the following equation: LogD7.4 = log [(counts in octanol phase)/(counts in aqueous phase)]. For eFAP-7, samples (50 µL) of the octanol and aqueous phases were taken out and measured by LC-MS. LogD7.4 values were calculated by using the following equation: LogD7.4 = log [(area in octanol phase)/(area in aqueous phase)].

[3] = Stability in PBS at 37 °C (radio-HPLC / LC-MS); type: physicochemical
Description: as §1

[4] = Stability in mouse serum at 37 °C (radio-HPLC / LC-MS); type: in vitro ADME
Description: as §1

N#C[C@@H]1CC(F)(F)CN1C(=O)CNC(=O)c1ccnc2c(OCCCNC(=O)CN3CCN(CC(=O)[O-])CCN(CC(=O)[O-])CCN(CC(=O)[O-])CC3)cccc12.[111In+3] [[^111In]In-eFAP-6]
Stability (% ± SD) Human serum 1 h ([1]; % intact labeled ligand, human serum, 37 °C, 1 h): 91.2 ± 0.1%
Stability (% ± SD) Human serum 4 h ([1]; % intact labeled ligand, human serum, 37 °C, 4 h): 91.3 ± 0.7%
Stability (% ± SD) Human serum 24 h ([1]; % intact labeled ligand, human serum, 37 °C, 24 h): 90.4 ± 0.8%
degradation ([1]; human serum (HS), up to 24 h of incubation): less than 10%
incubation time at peak uptake (HT1080-huFAP cells; 1 nM radiotracer, 5–120 min): 15 min
peak uptake (HT1080-huFAP cells; 1 nM radiotracer, 5–120 min): 20.8 % AA/200,000 cells
uptake on co-incubation with an excess of UAMC-1110 (block) (HT1080-huFAP cells; 1 mM UAMC-1110, 45 min): negligible uptake
LogD7.4 [2]: -3.90 ± 0.03
Stability (% ± SD) PBS 1 h ([3]; % intact labeled ligand, 37 °C, 1 h): 93.2 ± 0.5%
Stability (% ± SD) PBS 4 h ([3]; % intact labeled ligand, 37 °C, 4 h): 93.1 ± 0.6%
Stability (% ± SD) PBS 24 h ([3]; % intact labeled ligand, 37 °C, 24 h): 92.3 ± 0.6%
degradation ([3]; up to 24 h of incubation): less than 10%
Stability (% ± SD) Mouse serum 1 h ([4]; % intact labeled ligand, mouse serum, 37 °C, 1 h): 92.1 ± 1.2%
Stability (% ± SD) Mouse serum 4 h ([4]; % intact labeled ligand, mouse serum, 37 °C, 4 h): 92.1 ± 1.4%
Stability (% ± SD) Mouse serum 24 h ([4]; % intact labeled ligand, mouse serum, 37 °C, 24 h): 91.0 ± 0.9%
degradation ([4]; mouse serum (MS), up to 24 h of incubation): less than 10%
